“Also recorded” adds a separate entry of the source.
Assays:
Type in all cases: in vivo, male C57BL/6JRj mice
DIO-NASH mice [1] = assay: EchoMRI body composition (MRI body weight, fat, lean and free water mass); settings: for Absolute fat tissue mass at week 11 / Absolute free water mass at week 11 / MRI body weight at week 11 / Relative fat tissue mass at week 11 / Relative lean tissue mass at week 11 / Relative free water mass (% of body weight): group mean, week 11
Experimental: The body composition of the mice was assessed by an EchoMRI 3-1 Body composition analyzer (EchoMRI, US). Non-anaesthetised mice was placed in a plastic tube inside the MRI scanner for approximately 80 seconds. The body composition is expressed as fat mass, fat free mass (lean mass) and water.

DIO-NASH mice [2] = assay: Liver total cholesterol (TC) at termination; settings: group mean
Experimental: (§1) The liver post-biopsy for histological analyses was removed by dissection from the left lateral lobe, fixated in 4% formalin for 20-24 h, and subsequently embedded in paraffin. Liver biopsies for liver triglycerides and total cholesterol were dissected from the medial lobe, snap frozen in liquid nitrogen, and stored at −80° C., while liver biopsies for hydroxyproline were dissected from the caudal lobe (the entire lobe), snap frozen in liquid nitrogen and stored at −80° C. Finally, a liver sample for RNA isolation and gene expression analysis was dissected from the left lateral lobe, snap frozen in liquid nitrogen, and stored at −80° C. until processing.
For liver TG and TC quantification, samples were homogenized, and TG and TC extracted in 5% NP-40 by heating twice to 90° C. The samples were centrifuged, and the TG and TC content measured in the supernatant, using commercial kits (Roche Diagnostics) on the Cobas c501 autoanalyzer according to the manufacturer's instructions.
Relative (mg/g of liver) liver total cholesterol (TC) at termination. Values expressed as mean of n=12-14+SEM.
Total (mg/liver) liver total cholesterol (TC) at termination. Values expressed as mean of […]+SEM.

DIO-NASH mice [3] = assay: Liver hydroxyproline (HP) at termination, colorimetric assay; settings: for Relative liver hydroxyproline (HP) at termination / Total liver hydroxyproline (HP) at termination: group mean
Experimental: as §1
For liver hydroxyproline (HP; a protein marker of fibrosis) quantification, liver samples were homogenized in 6 M HCl and hydrolyzed to degrade collagen. The samples were centrifuged, and the hydroxyproline content measured in duplicates in the supernatant, using a colorimetric assay (Quickzyme Biosciences) according to the manufacturer's instructions.
Relative liver hydroxyproline (HP) (μg/mg of liver) at termination. Values expressed as mean of n=12-14+SEM.
Total liver hydroxyproline (HP) (μg/liver) at termination. Values expressed as mean of n=12-14+SEM.

DIO-NASH mice [4] = assay: NAFLD Activity Score (steatosis, lobular inflammation, ballooning), pre- to post-biopsy histopathological scoring; settings: for NAFLD activity score (NAS), effect in words: 12 weeks of treatment, compared to NASH vehicle+vehicle, summary of data; for Delta change in NAFLD activity score from pre- to post biopsy: group mean
Experimental: Three weeks prior to study start, a pre-biopsy was performed to confirm NASH and for study inclusion of NASH-affected mice only. Briefly, mice were anesthetized with isoflurane (2-3%) in 100% oxygen. A small abdominal incision was made in the midline and the left lateral lobe of the liver exposed. A cone shaped wedge of liver tissue (approximately 50 mg) was excised from the distal portion of the lobe and fixated in 10% neutral buffered formalin (4% formaldehyde) for histopathological analyses. The cut surface of the liver was instantly electro-coagulated using bipolar coagulation (ERBE VIO 100 electrosurgical unit). The liver was returned to the abdominal cavity, the abdominal wall sutured, and the skin closed with staplers. For post-operative recovery, mice received carprofen (5 mg/ml-0.01 ml/10 g) administered subcutaneously on the day of operation and on post-operation day 1 and 2.
(§2) For Hematoxylin & Eosin (HE) staining, slides were incubated in Mayer's Hematoxylin, washed in tap water, stained in Eosin Y solution, […], mounted with Pertex and allowed to dry before scanning.
For scoring of NAFLD Activity Score (NAS) and fibrosis stage, HE and Sirius red stained liver sections, respectively, were scored by a histopathology specialist as outlined in Table 10 using the clinical criteria outlined by Kleiner et al. (2005). Total NAS score represents the sum of scores for steatosis, lobular inflammation, and ballooning degeneration scores, and ranges from 0-8.
For steatosis score, percentage refers to percentage of hepatocytes affected by steatosis as evaluated on low to medium power examination.
For lobular inflammation, inflammation is evaluated by counting the number of inflammatory foci per field using a 200× magnification (min. 5 fields per animal). A focus is defined as a cluster, not a row, of >3 inflammatory cells. Acidophil bodies are not included in this assessment, nor is portal inflammation.
For hepatocellular ballooning degeneration, degenerated hepatocytes with a cleared cytoplasm, enlargement, swelling, rounding and reticulated cytoplasm were identified.
Delta change in NAFLD activity score from pre-to post biopsy. Values expressed as mean of n=12-14+SEM.

DIO-NASH mice [5] = assay: Liver steatosis (liver lipid) quantified by morphometry on HE slides; settings: terminal, group mean
Experimental: as §2
Quantitative assessment of steatosis is evaluated as follows. Steatosis is quantified on H&E stained slides by image analysis using the Visiomorph software (Visiopharm, Denmark). Visiomorph protocols are designed to analyze the virtual slides in two steps: 1. Crude detection of tissue at low magnification (1× objective). 2. Detection of steatosis (pink) and tissue (blue) at high magnification (20× objective). The quantitative estimate of steatosis is calculated as an area fraction (AF) according to the following formula:
Terminal liver steatosis (i.e. liver lipid) was quantified by morphometry. Relative liver steatosis is denoted in % fractional area. Values expressed as mean of n=12-14+SEM.
Total liver steatosis is denoted in milligrams (% fractional area multiplied with liver weight). Values expressed as mean of n=12-14+SEM.

[6] = DIO-NASH mice, CHS-131 High 30 mg/kg, empagliflozin 10 mg/kg, elafibranor 30 mg/kg PO, liraglutide 0.4 mg/kg SC, QD
[7] = CHS-131 High dose (alone or combined)
[8] = DIO-NASH mice, compared to DIO mice administered vehicle only
[9] = DIO-NASH mice, CHS-131 Low 10 mg/kg PO QD
[10] = DIO-NASH mice, compared to vehicle only, non-significant

OC[C@H]1O[C@@H](c2ccc(Cl)c(Cc3ccc(O[C@H]4CCOC4)cc3)c2)[C@H](O)[C@@H](O)[C@@H]1O [Empagliflozin, reference compound]
Absolute fat tissue mass at week 11 (DIO-NASH mice [1]; [6]): 7.81 g | Absolute free water mass at week 11 (DIO-NASH mice [1]; [6]): 0.182 g | MRI body weight at week 11 (DIO-NASH mice [1]; [6]): 40.1 g | Relative fat tissue mass at week 11 (DIO-NASH mice [1]; [6]): 19.4 % of body weight | Relative lean tissue mass at week 11 (DIO-NASH mice [1]; [6]): 47.1 % of body weight | Relative free water mass (% of body weight) (DIO-NASH mice [1]; [7]): 0.458 % of body weight | Relative liver total cholesterol (TC) at termination (DIO-NASH mice [2]; [7]): 12.6 mg/g of liver | Total liver total cholesterol (TC) at termination (DIO-NASH mice [2]; [7]): 43.2 mg/liver | Relative liver hydroxyproline (HP) at termination (DIO-NASH mice [3]; [7]): 0.0747 μg/mg of liver | Total liver hydroxyproline (HP) at termination (DIO-NASH mice [3]; [7]): 233 μg/liver | NAFLD activity score (NAS), effect in words (DIO-NASH mice [4]; DIO-NASH mice): positive trend for improvement | Delta change in NAFLD activity score from pre- to post biopsy (DIO-NASH mice [4]; [7]): −0.31 | Relative liver steatosis (liver lipid) by morphometry (DIO-NASH mice [5]; [7]): 27.2 % fractional area | Total liver steatosis (% fractional area multiplied with liver weight) (DIO-NASH mice [5]; [7]): 923 milligrams

O=S(=O)(Nc1cc(Cl)c(Oc2cnc3ccccc3c2)c(Cl)c1)c1ccc(Cl)cc1Cl [CHS-131]
Fat tissue mass (fat mass), effect in words (DIO-NASH mice [1]; [8]): reduced significantly | Free water mass, effect in words (DIO-NASH mice [1]; [8]): remained stable | Relative fat tissue mass, effect in words (DIO-NASH mice [1]; [8]): reduced | Reduction of % fat mass as % of baseline body weight (DIO-NASH mice [1]; DIO-NASH mice, compared to vehicle alone, CHS-131 dose not stated): 20% | Absolute fat tissue mass at week 11 (DIO-NASH mice [1]; [6]): 6.9 g | Absolute free water mass at week 11 (DIO-NASH mice [1]; [6]): 0.0946 g | MRI body weight at week 11 (DIO-NASH mice [1]; [6]): 38.2 g | Relative fat tissue mass at week 11 (DIO-NASH mice [1]; [6]): 17.8 % of body weight | Relative lean tissue mass at week 11 (DIO-NASH mice [1]; [6]): 48.1 % of body weight | Absolute fat tissue mass at week 11 (DIO-NASH mice [1]; [9]): 7.07 g | Absolute free water mass at week 11 (DIO-NASH mice [1]; [9]): 0.165 g | MRI body weight at week 11 (DIO-NASH mice [1]; [9]): 38.3 g | Relative fat tissue mass at week 11 (DIO-NASH mice [1]; [9]): 18.4 % of body weight | Relative lean tissue mass at week 11 (DIO-NASH mice [1]; [9]): 48.5 % of body weight | Relative free water mass (% of body weight) (DIO-NASH mice [1]; [7]): 0.249 % of body weight | Relative free water mass (% of body weight) (DIO-NASH mice [1]; CHS-131 Low dose): 0.429 % of body weight | Relative liver total cholesterol (TC) at termination (DIO-NASH mice [2]; [7]): 12.3 mg/g of liver | Total liver total cholesterol (TC) at termination (DIO-NASH mice [2]; [7]): 39.2 mg/liver | Relative liver total cholesterol (TC) at termination (DIO-NASH mice [2]; CHS-131 Low dose): 12.4 mg/g of liver | Total liver total cholesterol (TC) at termination (DIO-NASH mice [2]; CHS-131 Low dose): 39.6 mg/liver | Marker of fibrosis hydroxyproline, effect in words (DIO-NASH mice [3]; DIO-NASH mice, 12 weeks of treatment, summary of data): positive trends for improvement | Improvement of liver hydroxyproline level at termination (marker of fibrosis) (DIO-NASH mice [3]; DIO-NASH mice, compared to DIO mice administered vehicle only, significant): 30% | Relative liver hydroxyproline (HP) at termination (DIO-NASH mice [3]; [7]): 0.0802 μg/mg of liver | Total liver hydroxyproline (HP) at termination (DIO-NASH mice [3]; [7]): 250 μg/liver | Relative liver hydroxyproline (HP) at termination (DIO-NASH mice [3]; CHS-131 Low dose): 0.0631 μg/mg of liver | Total liver hydroxyproline (HP) at termination (DIO-NASH mice [3]; CHS-131 Low dose): 205 μg/liver | NAFLD activity score (NAS), effect in words (DIO-NASH mice [4]; DIO-NASH mice): reduced NAS; also recorded: significant improvement | Improvement of average NAFLD activity score (NAS) post-baseline (DIO-NASH mice [4]; DIO-NASH mice, CHS-131 monotherapy, significant, on average): more than 1 unit | Improvement of ballooning (DIO-NASH mice [4]; [10]): ~10% | Improvement of steatosis (DIO-NASH mice [4]; [10]): approximately 30% | Improvement of lobular inflammation (DIO-NASH mice [4]; DIO-NASH mice, compared to vehicle only, non-significant (p=0.07)): 50% | NAFLD score: mice with improvement (DIO-NASH mice [4]; DIO-NASH mice, post- vs pre-study biopsy, significant): 7/13 | Delta change in NAFLD activity score from pre- to post biopsy (DIO-NASH mice [4]; [7]): −0.77 | Delta change in NAFLD activity score from pre- to post biopsy (DIO-NASH mice [4]; CHS-131 Low dose): −0.23 | Relative liver steatosis (liver lipid) by morphometry (DIO-NASH mice [5]; [7]): 23.1 % fractional area | Total liver steatosis (% fractional area multiplied with liver weight) (DIO-NASH mice [5]; [7]): 758 milligrams | Relative liver steatosis (liver lipid) by morphometry (DIO-NASH mice [5]; CHS-131 Low dose): 26.4 % fractional area | Total liver steatosis (% fractional area multiplied with liver weight) (DIO-NASH mice [5]; CHS-131 Low dose): 826 milligrams

CSc1ccc(C(=O)/C=C/c2cc(C)c(OC(C)(C)C(=O)O)c(C)c2)cc1 [Elafibranor, reference compound]
Absolute fat tissue mass at week 11 (DIO-NASH mice [1]; [6]): 3.73 g | Absolute free water mass at week 11 (DIO-NASH mice [1]; [6]): 0.0923 g | MRI body weight at week 11 (DIO-NASH mice [1]; [6]): 32.5 g | Relative fat tissue mass at week 11 (DIO-NASH mice [1]; [6]): 11.3 % of body weight | Relative lean tissue mass at week 11 (DIO-NASH mice [1]; [6]): 52.6 % of body weight | Relative free water mass (% of body weight) (DIO-NASH mice [1]; [7]): 0.292 % of body weight | Relative liver total cholesterol (TC) at termination (DIO-NASH mice [2]; [7]): 8.87 mg/g of liver | Total liver total cholesterol (TC) at termination (DIO-NASH mice [2]; [7]): 38.3 mg/liver | Relative liver hydroxyproline (HP) at termination (DIO-NASH mice [3]; [7]): 0.0389 μg/mg of liver | Total liver hydroxyproline (HP) at termination (DIO-NASH mice [3]; [7]): 164 μg/liver | Delta change in NAFLD activity score from pre- to post biopsy (DIO-NASH mice [4]; [7]): −2.00 | Relative liver steatosis (liver lipid) by morphometry (DIO-NASH mice [5]; [7]): 7.21 % fractional area | Total liver steatosis (% fractional area multiplied with liver weight) (DIO-NASH mice [5]; [7]): 322 milligrams

From patent US20220143003A1, “COMPOSITIONS AND METHODS TO TREAT NON-ALCOHOLIC FATTY LIVER DISEASES (NAFLD)” (Coherus Biosciences, Inc., priority 2018, published 2022)
